In PubChem BioAssay (NCI):
Values joined by “and” are separate entries in the source; they are usually repeats but may differ in a detail not shown here. Equal entries are not always repeated.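 Tested at 5 concentrations; 48 h exposure; 96-well plates; endpoints linearly interpolated, else capped at highest concentration. GI50 is the concentration that inhibits growth by half. Definition used: TGI = concentration required for complete inhibition of growth.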

What was measured:
Assay in all cases: NCI-60 cell line screen, 48 h
NCI/ADR-RES ovarian = test system: NCI/ADR-RES ovarian
HOP-62 NSCLC = test system: HOP-62 NSCLC
OVCAR-3 ovarian = test system: OVCAR-3 ovarian
RXF 393 renal = test system: RXF 393 renal
OVCAR-5 ovarian = test system: OVCAR-5 ovarian
SN12C renal = test system: SN12C renal
LOX IMVI melanoma = test system: LOX IMVI melanoma
HCC-2998 colon = test system: HCC-2998 colon
OVCAR-8 ovarian = test system: OVCAR-8 ovarian
T-47D breast = test system: T-47D breast

| Structure (SMILES) | GI50 (NCI/ADR-RES ovarian) [µM] | TGI (NCI/ADR-RES ovarian) [µM] | GI50 (HOP-62 NSCLC) [µM] | TGI (HOP-62 NSCLC) [µM] | GI50 (OVCAR-3 ovarian) [µM] | TGI (OVCAR-3 ovarian) | GI50 (RXF 393 renal) [µM] | TGI (RXF 393 renal) | GI50 (OVCAR-5 ovarian) [µM] | TGI (OVCAR-5 ovarian) | GI50 (SN12C renal) [µM] | TGI (SN12C renal) [µM] | GI50 (LOX IMVI melanoma) [µM] | TGI (LOX IMVI melanoma) | GI50 (HCC-2998 colon) [µM] | TGI (HCC-2998 colon) [µM] | GI50 (OVCAR-8 ovarian) [µM] | TGI (OVCAR-8 ovarian) | GI50 (T-47D breast) [µM] | TGI (T-47D breast) [µM] |
| --- | --- | --- | --- | --- | --- | --- | --- | --- | --- | --- | --- | --- | --- | --- | --- | --- | --- | --- | --- | --- |
| COC[C@H](NC(=O)c1cnc(C)s1)C(=O)N[C@@H](COC)C(=O)N[C@@H](Cc1ccccc1)C(=O)[C@@]1(C)CO1 | > 100 | > 100 | 31.4 | > 95.4 | 27.5 | > 86.3 µM | 15.5 | 33.9 µM | 33.3 | > 94 µM | 37.6 | > 100 | 17.8 | 38.4 µM | 18.2 | 37.6 | > 93.2 | > 100 µM | 19.9 | > 71.2 |
| OC1CC2CCC(C1)N2CCCN1c2ccccc2Sc2ccc(Cl)cc21 (stereo not given) | – | 6.32 | – | 10.4 | – | 8.27 µM | – | 4.04 µM | – | 8.01 µM | – | 13.7 | – | 3.33 µM | – | 0.959 | – | 4.86 µM | – | 5.44 |
| CSc1ccc(C2=NN(C(C)=O)C(c3ccc(-c4cc(Cl)c(Cl)cc4Cl)o3)C2)cc1 (stereo not given) | 16.7 | 34.1 | 15.8 | 29.4 | 15.3 | 37.8 µM | 17.6 | 35.1 µM | 14.3 | 27.4 µM | 14.5 | 27.6 | 15.4 | 28.7 µM | 15.8 | 29.6 | 16.9 | 36.9 µM | 11.9 | 37.2 |
| CC1=CCC2CC1C(C(=O)c1c[nH]c3ccccc13)=NC2(C)C (stereo not given) | – | > 100 | – | > 100 | – | > 100 µM | – | – | – | > 100 µM | – | > 100 | – | > 100 µM | – | > 100 | – | > 100 µM | – | 99.2 |
| CN(C)c1ccc(/C=c2\sc3nnc(-c4ccco4)n3c2=O)cc1 | – | – | – | > 100 | – | > 100 µM | – | > 100 µM | – | > 100 µM | – | > 100 | – | > 100 µM | – | > 100 | – | > 100 µM | – | – |
| O=C1c2ccccc2-c2c3c(cc4ccnc1c24)OCO3 | – | – | – | 21.1 | – | 60.4 µM and 48.9 µM | – | 18.4 µM and 33 µM | – | 37.8 µM and 57.6 µM | – | > 100 | – | 58.4 µM and 15 µM | – | 60.1 | – | 27.7 µM and 25.5 µM | – | – |
| CSC(=O)C[C@@]12O[C@@H]([C@@H](C)C3CCC4[C@@H]5C(O)CC6=CC(=O)C=C[C@]6(C)C5CC[C@@]43C)C[C@](C)(O1)C(C)(C)O2 (stereo not given in full) | – | – | – | 34.8 | – | 30.2 µM | – | 24.4 µM | – | 31.8 µM | – | 31.5 | – | 25.1 µM | – | 41.6 | – | 37.9 µM | – | – |
| O=C1Nc2c(Cl)cc(Cl)cc2/C1=N/N=C/c1ccco1 | – | 82.1 | – | > 100 | – | 95.1 µM | – | > 100 µM | – | > 100 µM | – | 82.1 | – | 35 µM | – | > 100 | – | > 100 µM | – | – |
| Oc1ccccc1-c1nn(CNc2ccc(Cl)cc2)c(=S)o1 | 18.9 | 79.7 | > 100 | > 100 | 23.5 | > 100 µM | 19.9 | 48.5 µM | > 100 | > 100 µM | 75.8 | > 100 | – | – | – | – | 30.2 | 89.9 µM | 57 | > 100 |
| CC1SC(c2ccccc2Cl)N(NC(=O)C(O)c2ccccc2)C1=O (stereo not given) | 66 | > 100 | > 100 | > 100 | 35.4 | > 100 µM | > 100 | > 100 µM | > 100 | > 100 µM | > 100 | > 100 | > 100 | > 100 µM | > 100 | > 100 | > 100 | > 100 µM | – | – |
| O=C(c1c(F)c(F)c(F)c(F)c1F)c1c(F)c(F)c(F)c(F)c1F | – | 14.5 | – | 3.49 | – | 2.43 µM | – | 2.94 µM | – | 3.65 µM | – | – | – | 2.19 µM | – | 3.47 | – | 2.97 µM | – | > 100 |
| C=CCC1(C(=O)OC)CCC/C(=N\O)C1 (stereo not given) | – | > 10 | – | > 10 | – | > 10 µM | – | – | – | – | – | > 10 | – | > 10 µM | – | > 10 | – | > 10 µM | – | > 10 |
| O=S1(=O)c2ccccc2N(O)C2=NCCN21 | – | – | – | > 100 | – | > 100 µM | – | > 100 µM | – | > 100 µM | – | > 100 | – | > 100 µM | – | > 100 | – | > 100 µM | – | – |
| COC(=O)CCC(=O)Nc1ccc(Cl)cc1C | – | – | – | > 100 | – | > 100 µM | – | > 100 µM | – | > 100 µM | – | > 100 | – | > 100 µM | – | > 100 | – | > 100 µM | – | – |
| CCCCCCCCCCCCSC(=S)c1c(C)[nH]n(-c2ccccc2)c1=O | – | – | – | 15.6 | – | 46.1 µM | – | 24.5 µM | – | > 50 µM | – | > 50 | – | > 50 µM | – | 21.5 | – | > 50 µM | – | – |
| [N-]=[N+]=NCN1C(=O)C2C3C=CC(C2C1=O)C1C2C(=O)N(CN=[N+]=[N-])C(=O)C2C31 (stereo not given) | – | > 100 | – | > 100 | – | > 100 µM | – | – | – | – | – | > 100 | – | > 100 µM | – | 69.8 | – | > 100 µM | – | > 100 |
| O=C1c2ccccc2C(=O)N1CCc1ncc(-c2ccccc2)[nH]1 | – | > 100 | – | > 100 | – | > 100 µM | – | – | – | > 100 µM | – | > 100 | – | – | – | > 100 | – | > 100 µM | – | – |
| O=C(O)c1cccc(S(=O)(=O)NCCO)c1 | – | > 100 | – | > 100 | – | > 100 µM | – | > 100 µM | – | > 100 µM | – | > 100 | – | > 100 µM | – | – | – | > 100 µM | – | > 100 |
| C=C(C)[C@@H]1CC[C@]2(CO)CC[C@]3(C)[C@H](CC[C@@H]4[C@@]5(C)CCCNC(C)(C)[C@@H]5CC[C@]43C)[C@@H]12 | 1.63 | 3.18 | 1.81 | 3.42 | 1.66 | 3.13 µM | 1.68 | 3.18 µM | 1.51 | 2.89 µM | 1.62 | 3.03 | – | – | 1.51 | 2.93 | 1.83 | 3.51 µM | 1.73 | 3.71 |
| COc1ccc(C(=O)C2CCC(C(=O)O)C2)cc1 (stereo not given) | – | – | – | > 100 | – | > 100 µM | – | > 100 µM | – | > 100 µM | – | > 100 | – | > 100 µM | – | > 100 | – | > 100 µM | – | – |
| Nc1nc(=O)n(C2CCC(CO)O2)cc1F (stereo not given) | – | – | – | > 100 | – | > 100 µM | – | > 100 µM | – | > 100 µM | – | > 100 | – | > 100 µM | – | > 100 | – | > 100 µM | – | – |
